Data: the NIST ThermoML archive (doi:10.1021/je900962v)
“And” between values parts separate entries of the source, which are not always exact repeats. Equal values may be shown once.

Tests used:
[1] = xn = mol fraction of the nth substance listed; settings: 298.15 K
[2] = 298.15 K

O [water] + CCCCOC(C)=O
Settings	surface tension liquid-gas [mN/m]
[1], x2 = 0	71.57

CCCCOC(C)=O [butyl ethanoate] + O
[1]
Settings	surface tension liquid-gas [mN/m]
x1 = 7.97e-05	63.74
x1 = 7.99e-05	64.49
x1 = 8.76e-05	63.71
x1 = 8.81e-05	64.3
x1 = 0.000104	62.6
x1 = 0.000124	61.81
x1 = 0.000131	61.47
x1 = 0.000142	61.15
x1 = 0.000173	59.3
x1 = 0.000216	57.5
x1 = 0.000274	55.53
x1 = 0.000343	53.31
x1 = 0.000439	51.12
x1 = 0.000536	49.09
x1 = 0.00067	46.9
x1 = 0.000754	45.57
x1 = 0.00081	44.42
x1 = 0.000933	43.1
x1 = 1	24.91

O [water] + CCOC(C)=O
Settings	surface tension liquid-gas [mN/m]
[1], Drop volume, x2 = 0	71.57

CCCCOC(C)=O [butyl ethanoate]
Settings	surface tension liquid-gas [mN/m]
[2]	24.91

CCCOC(C)=O [propyl ethanoate]
Settings	surface tension liquid-gas [mN/m]
[2], Drop volume	24.22

CCOC(C)=O [ethyl acetate] + O
[1], Drop volume
Settings	surface tension liquid-gas [mN/m]
x1 = 0.0011	62.08
x1 = 0.0013	60.95
x1 = 0.0014	60.43
x1 = 0.0017	59.33
x1 = 0.0018	58.8
x1 = 0.0025	56.64
x1 = 0.0033	54.17
x1 = 0.0044	51.16
x1 = 0.0054	48.98
x1 = 0.0061	47.92
x1 = 0.008	44.22
x1 = 0.0089	43.31
x1 = 0.0118	41.37
x1 = 0.0141	38.97
x1 = 1	23.93

O [water]
Settings	surface tension liquid-gas [mN/m]
[2], Drop volume	71.57

COC(C)=O [methyl ethanoate] + O
[1], Drop volume
Settings	surface tension liquid-gas [mN/m]
x1 = 0.004	61.87
x1 = 0.0047	60.57
x1 = 0.0056	59.67
x1 = 0.0069	57.62
x1 = 0.0093	54.72
x1 = 0.0115	53.25
x1 = 0.0147	49.91
x1 = 0.0183	48.18
x1 = 0.0214	46.68
x1 = 0.0245	44.35
x1 = 0.029	42.63
x1 = 0.0341	40.26
x1 = 0.0433	36.64
x1 = 0.0523	33.49
x1 = 0.0586	31.61
x1 = 0.0702	29.12
x1 = 1	24.79

CCOC(C)=O [ethyl acetate]
Settings	surface tension liquid-gas [mN/m]
[2], Drop volume	23.93

COC(C)=O [methyl ethanoate]
Settings	surface tension liquid-gas [mN/m]
[2], Drop volume	24.79

CCCOC(C)=O [propyl ethanoate] + O
[1], Drop volume
Settings	surface tension liquid-gas
x1 = 0.00017	65.86 mN/m
x1 = 0.00023	64.54 mN/m
x1 = 0.00031	62.64 mN/m and 63.23 mN/m
x1 = 0.00038	61.64 mN/m
x1 = 0.00041	61.43 mN/m
x1 = 0.00049	60.29 mN/m
x1 = 0.00052	59.4 mN/m
x1 = 0.00057	59.02 mN/m
x1 = 0.00071	57.47 mN/m
x1 = 0.00074	56.94 mN/m
x1 = 0.00083	56.17 mN/m
x1 = 0.00103	54.38 mN/m
x1 = 0.00104	53.7 mN/m
x1 = 0.00114	53.49 mN/m
x1 = 0.00116	53.22 mN/m
x1 = 0.00142	50.93 mN/m and 51.11 mN/m
x1 = 0.00158	49.17 mN/m
x1 = 0.00159	49.3 mN/m
x1 = 0.00208	46.76 mN/m
x1 = 0.00239	45.44 mN/m
x1 = 0.00318	42.65 mN/m
x1 = 0.00355	41.31 mN/m
x1 = 0.00367	40.63 mN/m
x1 = 0.0038	40.55 mN/m
x1 = 1	24.22 mN/m

O [water] + CCCOC(C)=O
Settings	surface tension liquid-gas [mN/m]
[1], Drop volume, x2 = 0	71.57

O [water] + COC(C)=O
Settings	surface tension liquid-gas [mN/m]
[1], Drop volume, x2 = 0	71.57
